For one experiment, the system named is breast line MDA468. Put plainly: In vitro cell culture growth assay (MTS), MDA468. To be noted: Homo sapiens, 72 h, MDA468 cells, three days after drug treatment. It counts as cell-based. Put shortly:
(§1)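 Inhibitors were added one day after plating, and viable cells were measured 3 days later by MTS conversion (absorbance 490 nm).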

Another experiment addresses T1, Human mTOR (FLAG-TOR) (Homo sapiens, UniProt P42345).
T1 construct: FLAG
The experiment is described as follows: Human mTOR kinase assay with purified enzyme, DELFIA format. It counts as biochemical. In outline:
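DELFIA readout: Eu-anti-P(T389)-S6K antibody (40 ng/mL, 1 h) on captured His6-S6K from the stopped reaction. Kinase step used purified FLAG-tagged human mTOR with test compound in HEPES (pH 7.4)/MnCl2/DTT buffer, 2 h at room temperature (linear 1–6 h), terminated by EDTA/EGTA.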

Experiment [1] concerns the target T2, PI3K (Homo sapiens, UniProt P48736).
T2 construct: PI3 Kinase γ IC50; other: PI3 Kinase γ; other: PI3 Kinase γ isoform, fluorescence polarization
The experiment is described as follows: Fluorescence polarization assay for PI3K. To be noted: read-out: PI3 Kinase γ IC50. It counts as biochemical. Put shortly: (§2)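 Fluorescence-polarization competition readout: after 30–60 min of PIP2/ATP turnover in 1% DMSO, a stop mix with GST-GRP (70 nM) and red probe (10 nM) was added.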
(Polarisation of emitted light reports the rotation of a fluorescent probe.)

Experiment [2] addresses T3, PI3K (Homo sapiens, UniProt P42336).
T3 construct: PI3 Kinase α IC50; other: PI3 Kinase α; other: PI3 Kinase α isoform, fluorescence polarization
Put plainly: Fluorescence polarization assay for PI3K. It counts as biochemical. To be noted: read-out: PI3 Kinase α IC50. In outline: as §2

For a further experiment, the system named is prostate line LNCap. The experiment is described as follows: In vitro cell culture growth assay (MTS), LNCap. It counts as cell-based. To be noted: Homo sapiens, LNCaP, 72 h, LNCap cells, three days after drug treatment. In outline: as §1
The mark [3] stands for this setting: purified human mTOR enzyme, DELFIA format.
Where [4] appears, read: PI3 Kinase γ isoform, fluorescence polarization.
Setting [5] is: PI3 Kinase α isoform, fluorescence polarization.

We go through 17 compounds from patent US8129371B2, “Thienopyrimidine and pyrazolopyrimidine compounds and their use as mTOR kinase and PI3 kinase inhibitors” (Wyeth LLC, priority 2007, dated 2012).

Where two headings read alike, the source gives them in different places. Where only a bound is given, the exact number is not on record here.

T3 sequence (P42336 whole entry, canonical isoform): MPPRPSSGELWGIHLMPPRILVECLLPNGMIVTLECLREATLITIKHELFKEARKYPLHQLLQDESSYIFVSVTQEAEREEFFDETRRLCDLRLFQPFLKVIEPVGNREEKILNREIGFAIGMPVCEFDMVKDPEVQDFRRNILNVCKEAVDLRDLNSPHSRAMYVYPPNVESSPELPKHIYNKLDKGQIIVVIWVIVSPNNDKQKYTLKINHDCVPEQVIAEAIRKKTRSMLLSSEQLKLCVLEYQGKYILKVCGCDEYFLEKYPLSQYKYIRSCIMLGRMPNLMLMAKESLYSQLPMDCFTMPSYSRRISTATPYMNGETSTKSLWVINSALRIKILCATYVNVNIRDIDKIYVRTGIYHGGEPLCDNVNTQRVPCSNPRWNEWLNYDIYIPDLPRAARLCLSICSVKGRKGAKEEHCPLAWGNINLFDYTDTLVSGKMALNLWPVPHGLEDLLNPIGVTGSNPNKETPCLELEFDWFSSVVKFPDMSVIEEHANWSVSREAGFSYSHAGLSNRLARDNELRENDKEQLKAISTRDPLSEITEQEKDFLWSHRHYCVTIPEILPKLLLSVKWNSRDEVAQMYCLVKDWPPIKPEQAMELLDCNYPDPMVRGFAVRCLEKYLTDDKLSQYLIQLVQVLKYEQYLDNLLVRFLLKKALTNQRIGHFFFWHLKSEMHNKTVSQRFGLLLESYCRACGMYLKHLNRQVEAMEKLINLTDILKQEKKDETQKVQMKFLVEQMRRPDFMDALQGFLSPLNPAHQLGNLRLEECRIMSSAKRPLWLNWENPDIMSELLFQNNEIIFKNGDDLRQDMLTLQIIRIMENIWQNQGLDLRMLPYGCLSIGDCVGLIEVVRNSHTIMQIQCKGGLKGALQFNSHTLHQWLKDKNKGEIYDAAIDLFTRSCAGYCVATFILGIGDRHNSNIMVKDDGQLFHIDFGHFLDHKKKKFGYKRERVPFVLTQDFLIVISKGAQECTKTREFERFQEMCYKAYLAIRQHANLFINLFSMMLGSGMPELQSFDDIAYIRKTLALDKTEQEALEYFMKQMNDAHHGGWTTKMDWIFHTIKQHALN
T2 sequence (P48736 whole entry, canonical isoform): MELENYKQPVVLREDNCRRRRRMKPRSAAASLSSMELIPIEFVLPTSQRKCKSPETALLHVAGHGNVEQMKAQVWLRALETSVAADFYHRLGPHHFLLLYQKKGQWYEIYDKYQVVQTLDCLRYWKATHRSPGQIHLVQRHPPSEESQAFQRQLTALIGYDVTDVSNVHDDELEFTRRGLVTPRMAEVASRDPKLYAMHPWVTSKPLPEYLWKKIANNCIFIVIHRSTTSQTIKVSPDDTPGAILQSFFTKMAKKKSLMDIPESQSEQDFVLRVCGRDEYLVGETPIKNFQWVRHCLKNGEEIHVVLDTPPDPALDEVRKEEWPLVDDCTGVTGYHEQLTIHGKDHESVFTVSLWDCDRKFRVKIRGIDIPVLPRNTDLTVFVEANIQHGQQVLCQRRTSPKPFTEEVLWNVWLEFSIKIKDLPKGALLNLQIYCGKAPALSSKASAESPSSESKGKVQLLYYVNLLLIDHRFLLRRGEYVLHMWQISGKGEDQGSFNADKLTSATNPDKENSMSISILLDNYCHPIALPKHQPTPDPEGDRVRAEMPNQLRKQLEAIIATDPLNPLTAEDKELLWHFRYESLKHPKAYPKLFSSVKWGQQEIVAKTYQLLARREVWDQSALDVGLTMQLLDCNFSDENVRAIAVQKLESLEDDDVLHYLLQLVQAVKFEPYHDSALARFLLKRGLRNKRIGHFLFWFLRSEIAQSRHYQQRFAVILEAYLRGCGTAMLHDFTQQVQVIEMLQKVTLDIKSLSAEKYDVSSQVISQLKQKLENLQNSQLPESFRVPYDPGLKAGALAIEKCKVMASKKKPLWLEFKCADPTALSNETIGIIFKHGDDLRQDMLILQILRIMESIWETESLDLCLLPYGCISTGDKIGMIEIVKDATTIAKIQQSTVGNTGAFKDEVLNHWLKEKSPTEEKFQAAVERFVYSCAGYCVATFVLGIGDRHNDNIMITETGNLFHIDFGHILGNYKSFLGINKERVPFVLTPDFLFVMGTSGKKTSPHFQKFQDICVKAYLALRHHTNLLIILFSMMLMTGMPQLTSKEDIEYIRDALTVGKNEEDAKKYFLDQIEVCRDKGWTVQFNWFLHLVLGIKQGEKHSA

The term IC50 denotes the point on the concentration scale where inhibition reaches its midpoint. For `CCOC(=O)N1CCC(n2ncc3c(N4CC5CCC(C4)O5)nc(-c4ccc(NC(=O)NCCCNC)cc4)nc32)CC1` [Example 38, ethyl 4-{6-[4-({[3-(methylamino)propyl]carbamoyl}amino)phenyl]-4-(8-oxa-3-azabicyclo[3.2.1]oct-3-yl)-1H-pyrazolo[3,4-d]pyrimidin-1-yl}piperidine-1-carboxylate], the IC50 in the experiment on breast line MDA468 turned out to be 7000 nM; at Human mTOR (FLAG-TOR), 5.3 nM; at PI3K [1] (PI3 Kinase γ), 11000 nM; on PI3K [2] (PI3 Kinase α) it was 1760 nM; in the experiment with prostate line LNCap it was 4400 nM.

For `CC(C)(C)n1ncc2c(N3CC4CCC(C3)O4)nc(-c3ccc(NC(=O)NCCF)cc3)nc21` [Example 95], the IC50 in the experiment on breast line MDA468 was 280 nM; against Human mTOR (FLAG-TOR), 0.61 nM; at PI3K [1] (PI3 Kinase γ), greater than 10000 nM; on PI3K [2] (PI3 Kinase α) it was 1060 nM; in the experiment on prostate line LNCap, 17 nM.

As for `O=C(Nc1ccc(-c2nc(N3C4CCC3COC4)c3cnn(CC(F)(F)F)c3n2)cc1)OCCO` [Example 266, 2-hydroxyethyl {4-[4-(3-oxa-8-azabicyclo[3.2.1]oct-8-yl)-1-(2,2,2-trifluoroethyl)-1H-pyrazolo[3,4-d]pyrimidin-6-yl]phenyl}carbamate], the IC50 in the experiment with breast line MDA468 was 180 nM; at Human mTOR (FLAG-TOR) it was 0.615 nM; on PI3K [1] (PI3 Kinase γ), greater than 10000 nM; on PI3K [2] (PI3 Kinase α) it was 2720 nM; in the experiment on prostate line LNCap it was 27 nM.

Regarding `CCOC(=O)N1CCC(n2ncc3c(N4CC5CCC(C4)O5)nc(-c4ccc(NC(=O)NC5CCN(C(=O)OC(C)(C)C)CC5)cc4)nc32)CC1` [Example 37, ethyl 4-{6-[4-({[1-(tert-butoxycarbonyl)piperidin-4-yl]carbamoyl}amino)phenyl]-4-(8-oxa-3-azabicyclo[3.2.1]oct-3-yl)-1H-pyrazolo[3,4-d]pyrimidin-1-yl}piperidine-1-carboxylate], the IC50 is greater than 60000 nM in the experiment on breast line MDA468; 37 nM on Human mTOR (FLAG-TOR); 7390 nM on PI3K [1] (PI3 Kinase γ); 8620 nM at PI3K [2] (PI3 Kinase α); 1000 nM in the experiment on prostate line LNCap.

In the case of `CC(C)C(=O)N1CCC(n2ncc3c(N4CC5CCC(C4)O5)nc(-c4ccc(NC(=O)NC5CC5)cc4)nc32)CC1` [Example 86, 1-cyclopropyl-3-{4-[1-(1-isobutyrylpiperidin-4-yl)-4-(8-oxa-3-azabicyclo[3.2.1]oct-3-yl)-1H-pyrazolo[3,4-d]pyrimidin-6-yl]phenyl}urea], the IC50 with breast line MDA468 was 350 nM; against Human mTOR (FLAG-TOR) it was 0.66 nM; at PI3K [1] (PI3 Kinase γ), greater than 10000 nM; at PI3K [2] (PI3 Kinase α), 4240 nM; in the experiment on prostate line LNCap, 80 nM.

Consider `CN1CCN(Cc2cc3nc(-c4ccc(NC(=O)NN(C)C)cc4)nc(N4CC5CCC(C4)O5)c3s2)CC1` [Example 425, 2,2-dimethyl-N-(4-{6-[(4-methylpiperazin-1-yl)methyl]-4-(8-oxa-3-azabicyclo[3.2.1]oct-3-yl)thieno[3,2-d]pyrimidin-2-yl}phenyl)hydrazinecarboxamide], for which the IC50 in the experiment with breast line MDA468 was 23000 nM; at Human mTOR (FLAG-TOR) (setting [3]), 545 nM; on PI3K [1] (setting [4]) it was greater than 10000 nM; on PI3K [2] (setting [5]), 5530 nM; in the experiment with prostate line LNCap, 19000 nM.

For the compound `O=C(Nc1ccc(-c2nc(N3CC4CCC(C3)O4)c3cnn(CC(F)(F)F)c3n2)cc1)Nc1ccc(N2CCNCC2)cc1` [Example 317, 1-{4-[4-(8-oxa-3-azabicyclo[3.2.1]oct-3-yl)-1-(2,2,2-trifluoroethyl)-1H-pyrazolo[3,4-d]pyrimidin-6-yl]phenyl}-3-(4-piperazin-1-ylphenyl)urea], the half-inhibitory concentration (IC50) in the experiment with breast line MDA468 was 1 nM; against Human mTOR (FLAG-TOR) (setting [3]), 0.255 nM; on PI3K [1] (setting [4]), greater than 10000 nM; at PI3K [2] (setting [5]) it was 77 nM; in the experiment on prostate line LNCap, less than 1 nM.

For the compound `CNC(=O)Nc1ccc(-c2nc(N3CC4CCC(C3)O4)c3cnn(C(COC)COC)c3n2)cc1` [Example 319, 1-(4-{1-[2-methoxy-1-(methoxymethyl)ethyl]-4-(8-oxa-3-azabicyclo[3.2.1]oct-3-yl)-1H-pyrazolo[3,4-d]pyrimidin-6-yl}phenyl)-3-methylurea], the half-maximal inhibitory concentration (IC50) in the experiment with breast line MDA468 was 900 nM; against Human mTOR (FLAG-TOR) (setting [3]) it was 13.5 nM; at PI3K [1] (setting [4]), greater than 10000 nM; on PI3K [2] (setting [5]), 628 nM; with prostate line LNCap, 240 nM.

On to `CCOC(=O)Nc1ccc(-c2nc(N3CC4CCC(C3)O4)c3cnn(C4CCN(C(=O)OC)CC4)c3n2)cc1` [Example 111, methyl 4-[6-{4-[(ethoxycarbonyl)amino]phenyl}-4-(8-oxa-3-azabicyclo[3.2.1]oct-3-yl)-1H-pyrazolo[3,4-d]pyrimidin-1-yl]piperidine-1-carboxylate], for which the IC50 in the experiment on breast line MDA468 was 6000 nM; against Human mTOR (FLAG-TOR) it was 8.5 nM; on PI3K [1] (PI3 Kinase γ), 12000 nM; at PI3K [2] (PI3 Kinase α), 3340 nM; with prostate line LNCap it was 700 nM.

Turning to `O=C(Nc1ccc(-c2nc(N3C[C@@H]4C[C@H]3CO4)c3cnn(CC(F)(F)F)c3n2)cc1)OCCO` [Example 291, 2-hydroxyethyl (4-{4-[(1S,4S)-2-oxa-5-azabicyclo[2.2.1]hept-5-yl]-1-(2,2,2-trifluoroethyl)-1H-pyrazolo[3,4-d]pyrimidin-6-yl}phenyl)carbamate], the IC50 in the experiment with breast line MDA468 is 300 nM; on Human mTOR (FLAG-TOR), 9 nM; at PI3K [1] (PI3 Kinase γ), greater than 10000 nM; on PI3K [2] (PI3 Kinase α), 6140 nM; with prostate line LNCap it was 170 nM.

In the case of `O=C(Nc1ccc(-c2nc(N3CC4CCC(C3)O4)c3cnn(CCF)c3n2)cc1)NC1CC1` [Example 248, 1-cyclopropyl-3-{4-[1-(2-fluoroethyl)-4-(8-oxa-3-azabicyclo[3.2.1]oct-3-yl)-1H-pyrazolo[3,4-d]pyrimidin-6-yl]phenyl}urea], the IC50 in the experiment with breast line MDA468 was 500 nM; against Human mTOR (FLAG-TOR) it was 0.765 nM; on PI3K [1] (PI3 Kinase γ), greater than 10000 nM; on PI3K [2] (PI3 Kinase α), 1820 nM; in the experiment on prostate line LNCap it was 90 nM.

As for `O=C(Nc1ccc(-c2nc(N3CC4CCC(C3)O4)c3cnn(C4CCC5(CC4)OCCO5)c3n2)cc1)NC1CC1` [Example 126, 1-cyclopropyl-3-{4-[1-(1,4-dioxaspiro[4.5]dec-8-yl)-4-(8-oxa-3-azabicyclo[3.2.1]oct-3-yl)-1H-pyrazolo[3,4-d]pyrimidin-6-yl]phenyl}urea], the IC50 in the experiment on breast line MDA468 was 58 nM; against Human mTOR (FLAG-TOR), 0.22 nM; on PI3K [1] (PI3 Kinase γ), greater than 10000 nM; at PI3K [2] (PI3 Kinase α) it was 12000 nM; in the experiment on prostate line LNCap, 2 nM.

In the case of `CN1CCN(C2CCC(n3ncc4c(N5CC6CCC(C5)O6)nc(-c5ccc(NC(=O)NC6CC6)cc5)nc43)CC2)CC1` (stereo not shown) [Example 372, 1-cyclopropyl-3-(4-{1-[4-(4-methylpiperazin-1-yl)cyclohexyl]-4-(8-oxa-3-azabicyclo[3.2.1]oct-3-yl)-1H-pyrazolo[3,4-d]pyrimidin-6-yl}phenyl)urea], the IC50 was found to be 420 nM in the experiment with breast line MDA468; 0.395 nM at Human mTOR (FLAG-TOR) (setting [3]); 5340 nM on PI3K [1] (setting [4]); 2980 nM on PI3K [2] (setting [5]); 110 nM with prostate line LNCap.

For `CN1CCN(c2ccc(NC(=O)Nc3ccc(-c4nc(N5CC6CCC(C5)O6)c5cnn(C)c5n4)cc3)cc2)CC1` [Example 236, 1-{4-[1-methyl-4-(8-oxa-3-azabicyclo[3.2.1]oct-3-yl)-1H-pyrazolo[3,4-d]pyrimidin-6-yl]phenyl}-3-[4-(4-methylpiperazin-1-yl)phenyl]urea], the IC50 in the experiment with breast line MDA468 turned out to be 43 nM; against Human mTOR (FLAG-TOR) it was 0.445 nM; at PI3K [1] (PI3 Kinase γ) it was 260 nM; on PI3K [2] (PI3 Kinase α), 70 nM; in the experiment on prostate line LNCap, 4 nM.

For the compound `O=C(Nc1ccc(CO)cc1)Nc1ccc(-c2nc(N3CC4CCC(C3)O4)c3cnn(CCO)c3n2)cc1` [Example 201, 1-{4-[1-(2-hydroxyethyl)-4-(8-oxa-3-azabicyclo[3.2.1]oct-3-yl)-1H-pyrazolo[3,4-d]pyrimidin-6-yl]phenyl}-3-[4-(hydroxymethyl)phenyl]urea], the IC50 in the experiment on breast line MDA468 amounted to 12 nM; against Human mTOR (FLAG-TOR), 0.265 nM; on PI3K [1] (PI3 Kinase γ), 1760 nM; on PI3K [2] (PI3 Kinase α), 50 nM; in the experiment on prostate line LNCap, 13 nM.

For the compound `CC(C)(C)OC(=O)N1CCC(n2ncc3c(N4CC5CCC(C4)O5)nc(-c4ccc(NC(=O)Nc5ccccc5)cc4)nc32)CC1` [Example 23, tert-butyl 4-[4-(8-oxa-3-azabicyclo[3.2.1]oct-3-yl)-6-{4-[(phenylcarbamoyl)amino]phenyl}-1H-pyrazolo[3,4-d]pyrimidin-1-yl]piperidine-1-carboxylate], the IC50 in the experiment on breast line MDA468 was 180 nM; against Human mTOR (FLAG-TOR), 0.7 nM; on PI3K [1] (PI3 Kinase γ), greater than 10000 nM; at PI3K [2] (PI3 Kinase α) it was 888 nM; with prostate line LNCap, 40 nM.

As for `CN(C)CCn1ncc2c(N3CC4CCC(C3)O4)nc(-c3ccc(NC(=O)NC4CC4)cc3)nc21` [Example 161, 1-cyclopropyl-3-(4-{1-[2-(dimethylamino)ethyl]-4-(8-oxa-3-azabicyclo[3.2.1]oct-3-yl)-1H-pyrazolo[3,4-d]pyrimidin-6-yl}phenyl)urea], the IC50 was 2200 nM in the experiment with breast line MDA468; 8.4 nM at Human mTOR (FLAG-TOR); greater than 10000 nM on PI3K [1] (PI3 Kinase γ); 3600 nM at PI3K [2] (PI3 Kinase α); 210 nM with prostate line LNCap.
